Measurements published in US20120121705A1, “Pharmaceutical Or Cosmetic Or Dietetic Composition Suitable For Promoting A Hair Pigmentation Effect” (priority 2009, published 2012).

Tested on: hair follicle pigmentation unit
Assay: Hair pigmentation: quantitative Masson-Fontana melanin staining in organ-cultured human scalp skin / hair follicles
Format: cell-based
Conditions: spermidine 3HCl 0.1 μM, given at each medium change (every 48 hours), 6 days organ culture; compared with vehicle; FIG. 1 and FIG. 2
Protocol: The skin of normal human scalp was taken from a person who had undergone a routine face lifting surgery after receiving the informed consent. All the experiments were carried out according to the Helsinki principles, with the ethical committee's approval.
The tissues subject to biopsy with 3-4 mm cylindrical scalpel were cultured at 37° C. for 6 days in Williams E medium (Biochrom, Cambridge, U.K.), integrated with 100 IU ml^−1 penicillin, 10 μg ml^−1 streptomycin (Gibco, Karlsruhe, Germany), 10 μg ml^−1 insulin (Sigma, Taukfirchen, Germany), 10 ng ml^−1 hydrocortisone (Sigma) and 2 mmol L^−1 (L-glutamine (Invitrogen, Paisley, U.K.). […]
The Masson-Fontana staining was carried out for the histochemical display of melanin on frozen sections. Melanin was stained in the form of brown granules and the pigmentation level was determined through the quantitative Masson-Fontana technique (Ito N., Ito T., Kromminga A., Bettermann A., Takigawa M., Kees F., Straub R. H., and Paus R. (2005): Human hair follicles display a functional equivalent of the hypothalamic-pituitary-adrenal axis and synthesize cortisol. FASEB J 19, 1332-4). […]
The staining intensity was analyzed in a defined reference region of the hair follicle pigmentation unit using the ImageJ software (National Institute of Health). […]

In the case of `NCCCCNCCCN` [spermidine, N-(3-aminopropyl)butan-1,4-diamine], the “pigmentation intensity in hair follicles (melanin, Masson-Fontana staining)” value is reported as “increase of melanin”.
